Source: patent US10364256B2 (GlaxoSmithKline Intellectual Property Development Limited, priority 2015, dated 2019)
pEC50, pIC50: −log10 of the molar value. Like-named read-outs stand apart in the source and are kept apart here.

How the values were obtained:
[1] = system: NQO1 specific enzyme activity in BEAS-2B cells (marker for NRF2 activation); assay: BEAS-2B NQO1 MTT Assay; type: cell-based; conditions: Homo sapiens, compound incubated 48 hours, read-out: EC50 (NQO1 specific enzyme activity induction)
Outline: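 NQO1 specific activity induction is derived from the rate of MTT reduction (ΔOD/min, 570 nm, 30 min kinetic read) in crude lysates of BEAS-2B cells exposed to compound for 48 h. A 3-parameter fit gives EC50, reported as pEC50; part of each lysate goes to Cell Titer Glo.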

[2] = biological target: T1, Keap1 Kelch domain (321-609) / TAMRA-labeled 16mer NRF2 peptide (ETGE motif) (Homo sapiens, UniProt Q14145); assay: NRF2-Keap1 FP Assay (Keap1 Kelch fluorescence polarization); type: binding; conditions: 20 nM Keap1 (321-609), 8 nM Tamra labeled peptide
T1 construct: the Kelch domain (321-609) of Keap1 is used
Outline: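 Compound dilutions (3-fold) were incubated 1 hr at room temperature with 20 nM Keap1 Kelch (321-609) and 8 nM TAMRA-labeled ETGE 16mer peptide. Buffer was 50 mM Tris pH 8.0, 100 mM NaCl, 5 mM MgCl2, 1 mM DTT, 2 mM CHAPS, 0.005% BSA. Fluorescence polarization (mP) was normalized to controls and fitted with a four-parameter equation to give pIC50.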

[3] = biological target: T2, full length Keap1 protein / full length NRF2 protein (Homo sapiens, UniProt Q14145); assay: NRF2-Keap1 TR-FRET Assay; type: binding; conditions: 25 nM Keap1-FlagHis and 50 nM biotin-NRF2 added
T2 construct: full length NRF2 protein and full length Keap1 protein (Keap1 exists a dimer) are used; His
Outline: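 Displacement of biotinylated full-length NRF2 from full-length Keap1 read by Eu/APC TR-FRET (665/615 nm) after 1 h detection at RT. Compound, 3-fold series, first incubated with Keap1 at 37 °C for 2.25 h, NRF2 then added at 4 °C for 1.25 h; pIC50 by four-parameter equation.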

T2 sequence (Q14145 whole entry): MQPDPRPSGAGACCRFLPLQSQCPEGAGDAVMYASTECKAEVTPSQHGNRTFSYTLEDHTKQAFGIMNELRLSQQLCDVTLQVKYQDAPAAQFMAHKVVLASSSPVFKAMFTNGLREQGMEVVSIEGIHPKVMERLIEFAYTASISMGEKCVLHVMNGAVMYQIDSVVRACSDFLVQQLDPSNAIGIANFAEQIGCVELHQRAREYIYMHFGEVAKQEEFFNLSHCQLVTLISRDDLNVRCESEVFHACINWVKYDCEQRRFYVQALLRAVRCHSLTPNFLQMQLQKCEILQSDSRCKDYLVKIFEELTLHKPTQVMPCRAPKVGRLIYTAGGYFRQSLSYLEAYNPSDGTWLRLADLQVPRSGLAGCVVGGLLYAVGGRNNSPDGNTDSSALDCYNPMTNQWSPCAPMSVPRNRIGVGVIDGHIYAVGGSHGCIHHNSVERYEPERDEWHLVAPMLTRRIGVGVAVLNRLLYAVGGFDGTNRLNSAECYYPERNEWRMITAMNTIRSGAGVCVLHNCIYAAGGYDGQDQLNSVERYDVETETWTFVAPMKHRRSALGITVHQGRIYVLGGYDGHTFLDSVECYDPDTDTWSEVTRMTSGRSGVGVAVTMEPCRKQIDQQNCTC
T1 sequence (Q14145 321-609): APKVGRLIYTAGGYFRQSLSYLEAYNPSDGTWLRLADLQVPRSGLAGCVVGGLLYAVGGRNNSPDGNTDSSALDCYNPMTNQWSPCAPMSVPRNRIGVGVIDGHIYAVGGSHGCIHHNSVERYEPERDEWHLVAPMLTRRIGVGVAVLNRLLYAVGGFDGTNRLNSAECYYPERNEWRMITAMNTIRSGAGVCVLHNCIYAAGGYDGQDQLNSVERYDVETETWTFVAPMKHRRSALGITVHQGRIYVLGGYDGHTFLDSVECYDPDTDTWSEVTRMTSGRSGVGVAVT

Row | SMILES | pIC50 [2] | pIC50 [3] | pEC50 [1] | pEC50 ([1]; BEAS-2B, 48 h)
1 | CC(C)Oc1cccc(-c2cccc(-n3ncc(C(=O)O)c3C(F)(F)F)n2)c1 [Example 66, 1-(6-(3-Isopropoxyphenyl)pyridin-2-yl)-5-(trifluoromethyl)-1H-pyrazole-4-carboxylic Acid] | 5.00 to 6.00 | < 4.00 | 5.00 to 6.00 | –
2 | O=C(O)c1cnn(-c2cccc(-c3cccc(C(=O)N4CCCCCC4)c3)c2)c1C1CC1 [Example 10, 1-{3-[3-(Azepane-1-carbonyl)phenyl]phenyl}-5-cyclopropyl-1H-pyrazole-4-carboxylic Acid] | 6.00 to 7.00 | 5.00 to 6.00 | 5.00 to 6.00 | –
3 | COCCC(COc1cccc(-c2cccc(-n3ncc(C(=O)O)c3C3CC3c3cn(C)nn3)c2)c1)C1CCCCC1 (stereo not drawn) [Example 168, 1-(3′-(2-Cyclohexyl-4-methoxybutoxy)-[1,1′-biphenyl]-3-yl)-5-(2-(1-methyl-1H-1,2,3-triazol-4-yl)cyclopropyl)-1H-pyrazole-4-carboxylic acid] | 7.00 to 8.00 | 6.00 to 7.00 | 7.00 to 8.00 | –
4 | CC(C)Oc1cccc(-c2cccc(-n3ncc(C(=O)O)c3C(F)(F)F)c2)c1 [Example 11, 1-{3-[3-(propan-2-yloxy)phenyl]phenyl}-5-(trifluoromethyl)-1H-pyrazole-4-carboxylic Acid] | 5.00 to 6.00 | 4.00 to 5.00 | 5.00 to 6.00 | –
5 | O=C(O)c1cnn(-c2cccc(-c3cccc(C(=O)N(CCC(F)(F)F)CC4CC4)c3F)c2)c1C1CC1 [Example 23, 5-Cyclopropyl-1-(3-{3-[(cyclopropylmethyl)(3,3,3-trifluoropropyl)carbamoyl]-2-fluorophenyl}phenyl)-1H-pyrazole-4-carboxylic Acid] | 6.00 to 7.00 | 5.00 to 6.00 | 5.00 to 6.00 | –
6 | CCCC1CCCCN1C(=O)c1cccc(-c2cccc(-n3ncc(C(=O)O)c3CCc3cn(C)nn3)c2)c1F (stereo not drawn) [Example 56, 1-(2′-Fluoro-3′-(2-propylpiperidine-1-carbonyl)-[1,1′-biphenyl]-3-yl)-5-(2-(1-methyl-1H-1,2,3-triazol-4-yl)ethyl)-1H-pyrazole-4-carboxylic Acid] | 7.00 to 8.00 | 6.00 to 7.00 | 5.00 to 6.00 | –
7 | O=C(O)c1cnn(-c2cccc(-c3cccc(C4CCCO4)c3)c2)c1C1CC1 (stereo not drawn) [Example 50, 5-Cyclopropyl-1-[3′-(tetrahydro-furan-2-yl)-biphenyl-3-yl]-1H-pyrazole-4-carboxylic Acid] | 5.00 to 6.00 | < 4.00 | 5.00 to 6.00 | –
8 | O=C(O)c1cnn(-c2cccc(-c3cccc(C(=O)N4C5CCC4COC5)c3F)c2)c1C1CC1 [Example 32, 5-cyclopropyl-1-[3-(2-fluoro-3-{3-oxa-8-azabicyclo[3.2.1]octane-8-carbonyl}phenyl)phenyl]-1H-pyrazole-4-carboxylic Acid] | 6.00 to 7.00 | 5.00 to 6.00 | 5.00 to 6.00 | –
9 | CN(C)C(=O)c1cccc(-c2cccc(-n3ncc(C(=O)O)c3C(F)(F)F)c2)c1F [Example 2, 1-{3-[3-(Dimethylcarbamoyl)-2-fluorophenyl]phenyl}-5-(trifluoromethyl)-1H-pyrazole-4-carboxylic Acid] | 6.00 to 7.00 | 5.00 to 6.00 | 5.00 to 6.00 | –
10 | CCCC1CCCCN1C(=O)c1cccc(-c2cccc(-n3ncc(C(=O)O)c3C3CC3c3cccnc3)c2)c1 (stereo not drawn) [Example 52, 1-{3-[3-(2-propylpiperidine-1-carbonyl)phenyl]phenyl}-5-[2-(pyridin-3-yl)cyclopropyl]-1H-pyrazole-4-carboxylic Acid] | 6.00 to 7.00 | 5.00 to 6.00 | – | 5.00 to 6.00
11 | Cc1ccnn1-c1cccc(-c2cccc(-n3ncc(C(=O)O)c3C3CC3)c2)c1F [Example 39, 5-cyclopropyl-1-{3-[2-fluoro-3-(5-methyl-1H-pyrazol-1-yl)phenyl]phenyl}-1H-pyrazole-4-carboxylic Acid] | 6.00 to 7.00 | 5.00 to 6.00 | 5.00 to 6.00 | –
12 | Cn1cc(C2CC2c2c(C(=O)O)cnn2-c2cccc(-c3cccc(OC(C)(C)C)c3)c2)nn1 (stereo not drawn) [Example 166, 1-(3′-(tert-Butoxy)-[1,1′-biphenyl]-3-yl)-5-(2-(1-methyl-1H-1,2,3-triazol-4-yl)cyclopropyl)-1H-pyrazole-4-carboxylic acid] | 7.00 to 8.00 | 6.00 to 7.00 | 6.00 to 7.00 | –
13 | CC(=O)N1CCC(c2c(C(=O)O)cnn2-c2cccc(-c3cccc(C(=O)N(C)C)c3)c2)CC1 [Example 46] | 5.00 to 6.00 | 4.00 to 5.00 | 5.00 to 6.00 | –
14 | Cn1cc(CCCCOc2cccc(-c3cccc(-n4ncc(C(=O)O)c4C4CC4)c3)c2)nn1 [Example 153, 5-Cyclopropyl-1-(3′-(4-(1-methyl-1H-1,2,3-triazol-4-yl)butoxy)-[1,1′-biphenyl]-3-yl)-1H-pyrazole-4-carboxylic Acid] | 5.00 to 6.00 | 4.00 to 5.00 | 5.00 to 6.00 | –
15 | Cc1ccnn1-c1cccc(-c2cccc(-n3ncc(C(=O)O)c3C3CC3)c2)c1 [Example 36, 5-Cyclopropyl-1-{3-[3-(5-methyl-1H-pyrazol-1-yl)phenyl]phenyl}-1H-pyrazole-4-carboxylic Acid] | 6.00 to 7.00 | 5.00 to 6.00 | – | 5.00 to 6.00
16 | CCCC1CCCN1C(=O)c1cccc(-c2cccc(-n3ncc(C(=O)O)c3C3CC3)c2)c1F (stereo not drawn) [Example 26, 5-Cyclopropyl-1-{3-[2-fluoro-3-(2-propylpyrrolidine-1-carbonyl)phenyl]phenyl}-1H-pyrazole-4-carboxylic Acid] | 7.00 to 8.00 | 6.00 to 7.00 | 5.00 to 6.00 | –

Further lines, with some results ahead:

Row | pIC50 [2] | pIC50 [3] | SMILES | pEC50 [1] | pEC50 ([1]; BEAS-2B, 48 h)
17 | < 5.00 | 4.00 to 5.00 | Cn1cc(C2CC2c2c(C(=O)O)cnn2-c2cc(C#N)cc(-c3cccc(OCC4CCCCC4)c3)c2)nn1 (stereo not drawn) [Example 189, 1-(5-cyano-3′-(cyclohexylmethoxy)-[1,1′-biphenyl]-3-yl)-5-(2-(1-methyl-1H-1,2,3-triazol-4-yl)cyclopropyl)-1H-pyrazole-4-carboxylic acid] | 5.00 to 6.00 | –
18 | 7.00 to 8.00 | 6.00 to 7.00 | Cn1cc(C2CC2c2c(C(=O)O)cnn2-c2cccc(-c3cccc(OCC4CCCCO4)c3)c2)nn1 (stereo not drawn) [Example 175, 5-(2-(1-Methyl-1H-1,2,3-triazol-4-yl)cyclopropyl)-1-(3′-((tetrahydro-2H-pyran-2-yl)methoxy)-[1,1′-biphenyl]-3-yl)-1H-pyrazole-4-carboxylic acid] | 5.00 to 6.00 | –
19 | 6.00 to 7.00 | 5.00 to 6.00 | CC(C)Oc1cccc(-c2cccc(-n3ncc(C(=O)O)c3C3CC3c3cn(C)nn3)c2)c1F (stereo not drawn) [Example 181, 1-(2′-Fluoro-3′-isopropoxy-[1,1′-biphenyl]-3-yl)-5-(2-(1-methyl-1H-1,2,3-triazol-4-yl)cyclopropyl)-1H-pyrazole-4-carboxylic acid] | 5.00 to 6.00 | –
20 | 5.00 to 6.00 | 5.00 to 6.00 | CCC[C@@H]1CCCCN1C(=O)c1cccc(-c2cccc(-n3nc(C)c(C(=O)O)c3C3CC3)c2)c1 [Example 203, (R)-5-Cyclopropyl-3-methyl-1-(3′-(2-propylpiperidine-1-carbonyl)-[1,1′-biphenyl]-3-yl)-1H-pyrazole-4-carboxylic acid] | 5.00 to 6.00 | –
21 | 5.00 to 6.00 | 4.00 to 5.00 | Cn1cc(CCc2c(C(=O)O)cnn2-c2cccc(-c3cccc(OCC4CCCCC4)c3)c2)nn1 [Example 151, 1-(3-(Cyclohexylmethoxy)-[1,1′-biphenyl]-3-yl)-5-(2-(1-methyl-1H-1,2,3-triazol-4-yl)ethyl)-1H-pyrazole-4-carboxylic acid] | 5.00 to 6.00 | –
22 | 6.00 to 7.00 | 5.00 to 6.00 | Cn1cc([C@@H]2C[C@H]2c2c(C(=O)O)cnn2-c2cccc(-c3cccc(CN4CCCCC4)c3)c2)nn1 (racemic) [Example 247, 5-(trans-2-(1-Methyl-1H-1,2,3-triazol-4-yl)cyclopropyl)-1-(3′-(piperidin-1-ylmethyl)-[1,1′-biphenyl]-3-yl)-1H-pyrazole-4-carboxylic Acid] | 5.00 to 6.00 | –
23 | 7.00 to 8.00 | 6.00 to 7.00 | CCOC(c1cccc(-c2cccc(-n3ncc(C(=O)O)c3C3CC3c3cn(C)nn3)c2)c1)C(C)C (stereo not drawn) [Example 182, 1-(3′-(1-Ethoxy-2-methylpropyl)-[1,1′-biphenyl]-3-yl)-5-(2-(1-methyl-1H-1,2,3-triazol-4-yl)cyclopropyl)-1H-pyrazole-4-carboxylic acid] | 6.00 to 7.00 | –
24 | 6.00 to 7.00 | 6.00 to 7.00 | Cn1cc(C2CC2c2c(C(=O)O)cnn2-c2cccc(-c3cccc(OCC4CCCOC4)c3)c2)nn1 (stereo not drawn) [Example 169, 5-(2-(1-Methyl-1H-1,2,3-triazol-4-yl)cyclopropyl)-1-(3′-((tetrahydro-2H-pyran-3-yl)methoxy)-[1,1′-biphenyl]-3-yl)-1H-pyrazole-4-carboxylic acid] | 5.00 to 6.00 | –
25 | 6.00 to 7.00 | 6.00 to 7.00 | Cn1cc([C@H]2C[C@@H]2c2c(C(=O)O)cnn2-c2cccc(-c3cccc(OCC(C)(C)C)c3)c2)nn1 (racemic) [Example 226, 5-((1,2-trans)-2-(1-Methyl-1H-1,2,3-triazol-4-yl)cyclopropyl)-1-(3′-(neopentyloxy)-[1,1′-biphenyl]-3-yl)-1H-pyrazole-4-carboxylic acid] | 7.00 to 8.00 | –
